Values of other authors in patent US20250127863A1, “ANTIMICROBIAL PEPTIDE FOR ONYCHOMYCOSIS” (CBMR SCIENTIFIC NANOSCIENCE B.V., priority 2019, published 2025).

Key:
[1] = test system: onychomycosis; conditions: topical, specialist setting; after 48 weeks of treatment; cited from earlier work
[2] = test system: onychomycosis; conditions: systemic use; cited from earlier work

Question: For C=C1CCN([C@H](C)[C@](O)(Cn2cncn2)c2ccc(F)cc2F)CC1 [efinaconazole], which cure rates [1] is on record?
Answer: 15.2-17.8%

Question: For CN(C/C=C/C#CC(C)(C)C)Cc1cccc2ccccc12 [terbinafine], which “(mycological) cure” value [2] is on record?
Answer: 70.9%

Question: Which cure rates [1] does the source give for Clc1ccc(C(Cn2ccnc2)OCc2ccsc2Cl)c(Cl)c1 (stereo not drawn) [tioconazole] here?
Answer: 22%
